Legend:
[1] = test system: sebum production of the skin; test: Human sebum study: skin sebum on the forehead measured with Sebumeter SM 815; format: in vivo; conditions: lotion with 0.1% sphinganine, topical to forehead twice daily, 28 days (T4 vs T0); compared to the starting value and to the vehicle group; 14 female subjects
Experimental: The panel comprised 30 female subjects aged 21-45 years, with 14 subjects applying a lotion containing 0.1% sphinganine and 16 subjects applying a lotion without sphinganine (vehicle control).
The application phase comprised 28 days, with application taking place twice daily (morning and evening) to the forehead.
The skin sebum was measured using a Sebumeter SM 815® from Courage+Khazaka electronic GmbH, Cologne, Germany. The measurements were taken in the middle of the forehead in the region of the glabella lines. The average value calculated from the individual values of three repeat measurements was registered. On the evening before each measurement no formulation was applied. Three hours before the measurement, the forehead was cleaned using a wipe (babylove sensitive wipes, dm-drogerie markt, Karlsruhe, Germany). The measurements were carried out in each case at a time of day defined individually for each subject in the period between 12:00 and 14:30 hours. The sebum value at time point T0 before the application phase and T4 after 28 days was determined.

hair grease production = test: Human scalp health study: hair tonic applied to scalp, greasiness by subjective evaluation and Sebutape method; format: in vivo; conditions: hair tonic with 0.2% sphinganine, 3 mL to scalp twice daily, 4 months; vehicle control; 16 subjects per group
Experimental: The panel comprised 32 subjects (mixed male/female, minimum age 30, with a tendency for greasy scalp/greasy hair), with 16 subjects in each case applying a hair tonic with 0.2% sphinganine or without sphinganine (vehicle control). The application phase comprised 4 months, with the hair tonic being applied to the scalp twice daily (morning and evening) with the help of a pipette with a defined volume of 3 mL, and gently massaged in using the hands. The test parameters included the shine of the hair and the greasiness of the scalp. The greasiness of the scalp is carried out firstly by means of a subjective evaluation (self and expert estimation), and secondly by means of a “Sebutape” method in accordance with manufacturers instructions. Time points for carrying out the measurements were before the start of application, after two months and after four months.

stem cell markers = test: Gene expression studies in cell cultures; format: cell-based
From the text: A further subject matter of the present invention is consequently the cosmetic use of sphinganine for modulating stem cell markers.

Question: Which results are given for `CCCCCCCCCCCCCCC[C@@H](O)[C@@H](N)CO` [sphinganine]?
Answer: sebum production [1]: statistically significant reduction in sebum production; hair grease production (hair grease production): significant reduction in hair grease production; expression of stem cell markers (stem cell markers): beneficially modulated the expression of so-called stem cell markers

From US9610232B2, “Use of sphinganine to improve the visual appearance of skin and hair” (EVONIK DEGUSSA GMBH, priority 2011, dated 2017)
